Measured values from paper PMC11233931, “Remodeling tumor‐associated macrophage for anti‐cancer effects by rational design of irreversible inhibition of mitogen‐activated protein kinase‐activated protein kinase 2” (MedComm, 2024).

Experiments:
Assay in all cases: Eurofins kinase selectivity profile against 380 other human recombinant kinases (Table S2)
Format in all cases: biochemical
[1] = biological target: T1, 380 human recombinant protein kinases (Homo sapiens, UniProt P49760); conditions: CLK2(h), read-out: Inhibition rate
T1 construct: purchased Eurofins (Celle Lévescault)
Procedure, shortened: (§1)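 Profiling against 380 human recombinant kinases carried out by Eurofins at various compound concentrations.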

[2] = biological target: T2, 380 human recombinant protein kinases (Homo sapiens, UniProt P54762); conditions: EphB1(h), read-out: Inhibition rate
T2 construct: purchased Eurofins (Celle Lévescault)
T2 sequence (P54762 18-984): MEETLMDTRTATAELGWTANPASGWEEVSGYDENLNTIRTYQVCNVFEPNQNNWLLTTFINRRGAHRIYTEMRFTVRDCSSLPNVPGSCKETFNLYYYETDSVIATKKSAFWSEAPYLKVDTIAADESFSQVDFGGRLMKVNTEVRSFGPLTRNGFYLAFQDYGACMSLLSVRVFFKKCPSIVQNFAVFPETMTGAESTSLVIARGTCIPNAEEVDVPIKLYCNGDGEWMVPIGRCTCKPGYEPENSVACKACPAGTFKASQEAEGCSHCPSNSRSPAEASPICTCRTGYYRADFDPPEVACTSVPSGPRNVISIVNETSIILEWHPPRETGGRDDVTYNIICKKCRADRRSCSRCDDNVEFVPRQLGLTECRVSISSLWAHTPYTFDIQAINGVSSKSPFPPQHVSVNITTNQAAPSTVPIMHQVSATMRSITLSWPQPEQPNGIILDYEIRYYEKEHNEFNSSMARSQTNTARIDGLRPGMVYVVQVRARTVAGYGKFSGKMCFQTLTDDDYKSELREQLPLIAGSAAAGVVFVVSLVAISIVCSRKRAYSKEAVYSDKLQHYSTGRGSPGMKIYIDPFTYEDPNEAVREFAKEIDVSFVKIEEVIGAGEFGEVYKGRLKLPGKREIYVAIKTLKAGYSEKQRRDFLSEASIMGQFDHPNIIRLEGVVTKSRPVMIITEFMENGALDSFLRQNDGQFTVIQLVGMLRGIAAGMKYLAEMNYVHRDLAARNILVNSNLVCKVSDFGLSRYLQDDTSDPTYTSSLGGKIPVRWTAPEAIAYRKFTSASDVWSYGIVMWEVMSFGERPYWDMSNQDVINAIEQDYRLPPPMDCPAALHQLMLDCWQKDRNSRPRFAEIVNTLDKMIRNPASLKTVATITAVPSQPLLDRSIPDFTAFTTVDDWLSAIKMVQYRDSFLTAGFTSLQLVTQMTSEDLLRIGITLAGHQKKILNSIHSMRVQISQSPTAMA
Procedure, shortened: as §1

[3] = biological target: T3, 380 human recombinant protein kinases (Homo sapiens, UniProt Q52WX2); conditions: SBK1(h), read-out: Inhibition rate (%)
T3 construct: purchased Eurofins (Celle Lévescault)
Procedure, shortened: as §1

[4] = biological target: T4, 380 human recombinant protein kinases (Homo sapiens, UniProt Q16584); conditions: MLK3(h), read-out: Inhibition rate
T4 construct: purchased Eurofins (Celle Lévescault)
Procedure, shortened: as §1

[5] = biological target: T5, 380 human recombinant protein kinases (Homo sapiens, UniProt P48730); conditions: CK1δ(h), read-out: Inhibition rate
T5 construct: purchased Eurofins (Celle Lévescault)
Procedure, shortened: as §1

[6] = biological target: T6, 380 human recombinant protein kinases (Homo sapiens, UniProt Q9HAZ1); conditions: CLK4(h), read-out: Inhibition rate
T6 construct: purchased Eurofins (Celle Lévescault)
Procedure, shortened: as §1

[7] = biological target: T7, 380 human recombinant protein kinases (Homo sapiens, UniProt O00418); conditions: eEF-2K(h), read-out: Inhibition rate
T7 construct: purchased Eurofins (Celle Lévescault)
T7 sequence (O00418 1-725): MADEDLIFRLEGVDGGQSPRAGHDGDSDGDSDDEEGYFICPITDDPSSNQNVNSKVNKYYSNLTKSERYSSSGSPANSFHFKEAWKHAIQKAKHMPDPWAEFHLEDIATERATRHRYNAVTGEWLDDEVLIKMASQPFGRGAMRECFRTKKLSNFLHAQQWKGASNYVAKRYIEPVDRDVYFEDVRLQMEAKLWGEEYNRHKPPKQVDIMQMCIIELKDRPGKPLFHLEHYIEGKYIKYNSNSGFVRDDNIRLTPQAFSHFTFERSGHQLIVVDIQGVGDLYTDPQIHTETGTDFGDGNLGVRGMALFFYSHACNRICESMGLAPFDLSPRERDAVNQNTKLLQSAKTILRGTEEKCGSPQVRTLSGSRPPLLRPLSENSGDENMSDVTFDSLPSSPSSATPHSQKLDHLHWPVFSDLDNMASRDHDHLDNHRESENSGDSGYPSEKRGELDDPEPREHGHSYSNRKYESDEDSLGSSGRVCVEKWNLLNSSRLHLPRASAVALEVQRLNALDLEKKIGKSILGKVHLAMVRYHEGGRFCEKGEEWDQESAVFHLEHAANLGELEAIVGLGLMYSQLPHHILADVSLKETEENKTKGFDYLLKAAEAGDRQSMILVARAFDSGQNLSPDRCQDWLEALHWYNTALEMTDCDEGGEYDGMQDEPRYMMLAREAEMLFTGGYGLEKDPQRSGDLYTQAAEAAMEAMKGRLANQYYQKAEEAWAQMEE
Procedure, shortened: as §1

[8] = biological target: T8, 380 human recombinant protein kinases (Homo sapiens, UniProt P08922); conditions: Ros(h), read-out: Inhibition rate
T8 construct: purchased Eurofins (Celle Lévescault)
Procedure, shortened: as §1

T6 sequence (Q9HAZ1 whole entry): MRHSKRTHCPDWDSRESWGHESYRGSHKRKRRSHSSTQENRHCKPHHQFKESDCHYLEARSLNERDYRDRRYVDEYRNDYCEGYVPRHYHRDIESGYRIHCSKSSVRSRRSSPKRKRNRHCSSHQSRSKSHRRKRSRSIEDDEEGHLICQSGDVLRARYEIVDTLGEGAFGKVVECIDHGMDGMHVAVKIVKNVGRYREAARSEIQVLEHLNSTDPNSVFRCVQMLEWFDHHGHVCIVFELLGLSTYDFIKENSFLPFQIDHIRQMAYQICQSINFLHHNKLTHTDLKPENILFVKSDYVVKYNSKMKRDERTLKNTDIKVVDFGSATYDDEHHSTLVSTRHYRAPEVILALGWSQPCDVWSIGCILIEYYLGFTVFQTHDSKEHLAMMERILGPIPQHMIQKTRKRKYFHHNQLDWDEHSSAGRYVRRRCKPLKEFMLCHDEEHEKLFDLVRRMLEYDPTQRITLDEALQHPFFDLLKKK
T1 sequence (P49760 whole entry): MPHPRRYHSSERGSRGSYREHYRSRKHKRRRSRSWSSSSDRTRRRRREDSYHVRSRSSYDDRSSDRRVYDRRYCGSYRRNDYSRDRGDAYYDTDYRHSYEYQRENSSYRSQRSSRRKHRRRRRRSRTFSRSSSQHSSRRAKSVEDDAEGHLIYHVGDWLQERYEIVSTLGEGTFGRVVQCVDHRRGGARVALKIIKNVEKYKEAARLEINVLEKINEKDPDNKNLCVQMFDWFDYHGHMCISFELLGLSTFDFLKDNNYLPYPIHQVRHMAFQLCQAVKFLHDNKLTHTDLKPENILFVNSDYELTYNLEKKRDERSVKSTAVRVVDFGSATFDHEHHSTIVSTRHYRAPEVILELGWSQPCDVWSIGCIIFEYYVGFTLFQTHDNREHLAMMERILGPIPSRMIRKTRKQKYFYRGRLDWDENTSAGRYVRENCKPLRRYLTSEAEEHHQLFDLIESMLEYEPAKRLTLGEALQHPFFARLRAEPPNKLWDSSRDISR
T3 sequence (Q52WX2 whole entry): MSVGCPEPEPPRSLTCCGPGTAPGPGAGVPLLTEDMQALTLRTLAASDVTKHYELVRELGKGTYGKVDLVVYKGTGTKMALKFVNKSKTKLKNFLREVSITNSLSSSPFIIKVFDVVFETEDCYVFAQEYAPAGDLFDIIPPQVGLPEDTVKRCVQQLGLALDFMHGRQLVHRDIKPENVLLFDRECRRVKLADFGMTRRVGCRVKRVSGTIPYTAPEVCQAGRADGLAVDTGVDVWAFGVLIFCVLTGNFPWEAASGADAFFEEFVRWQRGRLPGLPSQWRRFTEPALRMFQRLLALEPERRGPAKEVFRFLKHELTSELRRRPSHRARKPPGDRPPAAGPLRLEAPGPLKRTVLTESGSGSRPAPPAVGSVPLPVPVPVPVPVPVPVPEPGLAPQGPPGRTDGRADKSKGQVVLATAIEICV
T4 sequence (Q16584 whole entry): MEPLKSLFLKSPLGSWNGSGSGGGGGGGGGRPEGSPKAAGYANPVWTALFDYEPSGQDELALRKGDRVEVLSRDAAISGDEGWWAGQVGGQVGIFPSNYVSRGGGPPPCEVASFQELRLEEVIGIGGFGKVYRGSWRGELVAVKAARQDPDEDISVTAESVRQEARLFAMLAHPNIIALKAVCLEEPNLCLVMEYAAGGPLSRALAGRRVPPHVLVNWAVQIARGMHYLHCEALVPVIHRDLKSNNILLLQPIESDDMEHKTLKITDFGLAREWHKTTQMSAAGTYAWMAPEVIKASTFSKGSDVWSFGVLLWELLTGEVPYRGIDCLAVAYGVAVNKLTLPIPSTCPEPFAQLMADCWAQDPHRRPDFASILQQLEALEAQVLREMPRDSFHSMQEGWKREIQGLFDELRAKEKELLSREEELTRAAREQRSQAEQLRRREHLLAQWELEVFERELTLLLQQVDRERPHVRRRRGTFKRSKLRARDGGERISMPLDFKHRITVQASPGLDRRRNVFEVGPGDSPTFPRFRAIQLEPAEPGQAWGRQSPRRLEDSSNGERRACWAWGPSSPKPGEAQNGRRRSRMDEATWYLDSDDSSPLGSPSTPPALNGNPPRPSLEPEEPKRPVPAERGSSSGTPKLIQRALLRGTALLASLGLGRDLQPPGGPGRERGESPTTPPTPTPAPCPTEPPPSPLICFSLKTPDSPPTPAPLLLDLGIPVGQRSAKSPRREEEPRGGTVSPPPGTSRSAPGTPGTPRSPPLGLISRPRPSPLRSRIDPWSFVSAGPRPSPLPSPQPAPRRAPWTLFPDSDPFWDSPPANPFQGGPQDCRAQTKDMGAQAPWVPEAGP
T8 sequence (P08922 28-2347): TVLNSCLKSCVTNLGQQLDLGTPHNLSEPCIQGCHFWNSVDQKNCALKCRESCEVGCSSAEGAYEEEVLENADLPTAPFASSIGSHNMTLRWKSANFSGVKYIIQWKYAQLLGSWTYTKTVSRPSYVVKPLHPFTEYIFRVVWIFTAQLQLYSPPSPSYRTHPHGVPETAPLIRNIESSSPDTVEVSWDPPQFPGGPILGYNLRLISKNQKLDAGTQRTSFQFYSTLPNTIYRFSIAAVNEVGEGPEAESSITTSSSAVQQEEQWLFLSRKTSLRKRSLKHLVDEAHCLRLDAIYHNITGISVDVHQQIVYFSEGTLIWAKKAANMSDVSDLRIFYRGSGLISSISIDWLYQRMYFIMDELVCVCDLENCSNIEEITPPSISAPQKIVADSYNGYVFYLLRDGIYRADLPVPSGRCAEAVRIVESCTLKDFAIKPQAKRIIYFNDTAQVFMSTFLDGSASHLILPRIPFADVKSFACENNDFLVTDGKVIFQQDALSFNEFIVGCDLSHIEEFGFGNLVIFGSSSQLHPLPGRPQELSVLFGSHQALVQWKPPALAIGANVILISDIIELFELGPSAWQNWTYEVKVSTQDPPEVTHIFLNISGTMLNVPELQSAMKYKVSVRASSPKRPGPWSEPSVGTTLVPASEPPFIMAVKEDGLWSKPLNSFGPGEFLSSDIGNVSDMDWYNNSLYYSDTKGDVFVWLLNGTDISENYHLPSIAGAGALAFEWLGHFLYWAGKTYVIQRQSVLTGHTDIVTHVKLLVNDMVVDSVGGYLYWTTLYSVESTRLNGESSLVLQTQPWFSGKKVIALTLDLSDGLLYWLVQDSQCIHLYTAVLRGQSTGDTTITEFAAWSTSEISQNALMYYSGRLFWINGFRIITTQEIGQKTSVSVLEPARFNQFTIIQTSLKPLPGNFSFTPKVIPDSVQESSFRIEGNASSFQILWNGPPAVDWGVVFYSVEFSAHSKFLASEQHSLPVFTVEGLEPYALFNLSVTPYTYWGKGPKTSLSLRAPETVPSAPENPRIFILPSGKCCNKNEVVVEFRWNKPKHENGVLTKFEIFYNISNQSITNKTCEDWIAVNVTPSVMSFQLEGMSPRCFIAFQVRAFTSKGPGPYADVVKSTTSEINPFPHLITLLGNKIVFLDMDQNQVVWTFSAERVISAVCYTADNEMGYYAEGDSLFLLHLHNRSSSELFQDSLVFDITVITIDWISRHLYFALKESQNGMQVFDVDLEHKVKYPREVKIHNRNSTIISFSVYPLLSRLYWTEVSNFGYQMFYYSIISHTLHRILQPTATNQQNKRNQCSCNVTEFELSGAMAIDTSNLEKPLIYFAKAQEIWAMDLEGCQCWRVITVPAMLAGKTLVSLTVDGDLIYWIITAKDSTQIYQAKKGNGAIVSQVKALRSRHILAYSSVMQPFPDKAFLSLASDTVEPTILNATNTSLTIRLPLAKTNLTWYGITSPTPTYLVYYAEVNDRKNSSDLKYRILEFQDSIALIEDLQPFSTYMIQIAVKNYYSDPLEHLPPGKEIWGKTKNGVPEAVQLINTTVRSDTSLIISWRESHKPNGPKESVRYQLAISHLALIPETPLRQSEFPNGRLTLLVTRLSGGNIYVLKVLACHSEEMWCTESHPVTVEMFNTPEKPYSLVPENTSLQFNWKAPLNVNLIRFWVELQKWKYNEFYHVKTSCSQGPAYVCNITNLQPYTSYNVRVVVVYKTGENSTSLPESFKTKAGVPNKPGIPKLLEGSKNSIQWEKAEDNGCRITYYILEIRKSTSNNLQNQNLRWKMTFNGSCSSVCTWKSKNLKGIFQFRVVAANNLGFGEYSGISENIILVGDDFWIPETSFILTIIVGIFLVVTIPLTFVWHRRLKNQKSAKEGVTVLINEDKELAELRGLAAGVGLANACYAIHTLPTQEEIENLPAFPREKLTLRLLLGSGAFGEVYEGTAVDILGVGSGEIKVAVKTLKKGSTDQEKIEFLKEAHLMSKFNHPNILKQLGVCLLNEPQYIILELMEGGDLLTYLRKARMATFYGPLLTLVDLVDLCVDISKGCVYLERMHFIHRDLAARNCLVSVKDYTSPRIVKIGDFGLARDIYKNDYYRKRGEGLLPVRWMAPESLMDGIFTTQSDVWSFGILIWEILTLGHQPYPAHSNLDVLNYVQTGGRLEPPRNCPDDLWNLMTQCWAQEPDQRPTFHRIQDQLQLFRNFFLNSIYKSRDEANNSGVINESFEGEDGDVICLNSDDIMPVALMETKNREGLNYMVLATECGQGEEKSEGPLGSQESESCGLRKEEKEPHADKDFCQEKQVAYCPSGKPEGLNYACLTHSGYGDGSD
T5 sequence (P48730 whole entry): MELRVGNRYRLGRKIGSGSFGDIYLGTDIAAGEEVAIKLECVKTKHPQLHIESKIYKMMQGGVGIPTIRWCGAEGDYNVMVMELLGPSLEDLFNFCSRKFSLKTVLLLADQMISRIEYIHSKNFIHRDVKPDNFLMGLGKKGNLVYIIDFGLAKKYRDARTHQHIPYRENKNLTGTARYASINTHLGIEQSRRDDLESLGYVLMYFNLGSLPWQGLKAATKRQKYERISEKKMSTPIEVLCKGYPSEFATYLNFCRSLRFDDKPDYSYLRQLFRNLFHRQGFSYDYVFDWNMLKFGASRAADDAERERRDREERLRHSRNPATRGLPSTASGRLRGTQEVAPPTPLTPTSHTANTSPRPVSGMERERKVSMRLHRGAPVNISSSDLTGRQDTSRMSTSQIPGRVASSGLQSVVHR

C=CC(=O)Nc1cc(-c2cc(-c3cc4c([nH]3)CCNC4=O)ccn2)ccc1OC(F)(F)F [compound 11]
inhibition at 0.01 µM ([1]; 10 nM): 1%
inhibition at 0.1 µM ([1]; 100 nM): 10%
inhibition at 1 µM ([1]; 1000 nM): 42%
inhibition at 0.01 µM ([2]; 10 nM): -17%
inhibition at 0.1 µM ([2]; 100 nM): -12%
inhibition at 1 µM ([2]; 1000 nM): 2%
inhibition at 0.01 µM ([3]; 10 nM): -1%
inhibition at 0.1 µM ([3]; 100 nM): -8%
inhibition at 1 µM ([3]; 1000 nM): 3%
inhibition at 0.01 µM ([4]; 10 nM): -2%
inhibition at 0.1 µM ([4]; 100 nM): 8%
inhibition at 1 µM ([4]; 1000 nM): 43%
inhibition at 0.01 µM ([5]; 10 nM): 3%
inhibition at 0.1 µM ([5]; 100 nM): 26%
inhibition at 1 µM ([5]; 1000 nM): 74%
inhibition at 0.01 µM ([6]; 10 nM): -6%
inhibition at 0.1 µM ([6]; 100 nM): 25%
inhibition at 1 µM ([6]; 1000 nM): 76%
inhibition at 0.01 µM ([7]; 10 nM): -4%
inhibition at 0.1 µM ([7]; 100 nM): -10%
inhibition at 1 µM ([7]; 1000 nM): -27%
inhibition at 0.01 µM ([8]; 10 nM): 1%
inhibition at 0.1 µM ([8]; 100 nM): 1%
inhibition at 1 µM ([8]; 1000 nM): 6%
